# Measured values: patent US4211764A, “Gastric secretion stimulation with 2-amino-5-(2-aminoethyl)-1,3,4-thiadiozole” (priority 1978, dated 1980)
# “Also recorded” adds a separate entry of the source.
# Experiments:
# male dogs = assay: Chronic toxicity, dogs per os; type: in vivo; details: for Bilirubin content / Glutamic-alanine transaminase content: 200 mg per os daily, Test
# Experimental: Three male dogs weighing 22 to 25 kg
# 1. Administration per os, 200 mg
# (in gelatin capsules), admini-
# stration performed once a day
# during 10 days, one animal being
# H2 -receptors = H2 -receptors (Rattus norvegicus, UniProt P25102); details: uterus horn
# Experimental: Contractions of an isolated horn of uterus of a rat due to the effect of acetylcholine in a concentration of 1.10^-6 M were recorded on a paper tape.
# dog's stomach = assay: Gastric secretion in dogs, administration per os; type: in vivo
# Experimental: Chronic experiments were performed on male dogs weighing 20 to 25 kg and having a gastric fistula; prior to experiments, the animals were starved for 18 hours.
# H1 - and H2 -receptors = assay: Comparison of effects upon H1 - and H2 -receptors of different objects
# Experimental: Changes in the heart rate were measured, dose-response curves were plotted, and pD2 values were calculated.
# H1 -receptors = target: T1, H1 -receptors (Cavia porcellus, UniProt P31389); assay: Contraction of isolated ileum; details: guinea pig ileum; read-out: pD2 value in relation to H1 -receptors (converted)
# T1 construct: from tissue; host or cells: isolated guinea pig ileum
# arterial pressure = assay: Arterial pressure in rabbits; details: intravenous, thidazine 0.1 mg/kg, equimolar doses of histamine and histalog
# Experimental: In a series of experiments of 18 rabbits weighing 2.5 to 3.5 kg, each having the common carotid artery in a cutaneous flap, the preparations were injected intravenously.
# [1] = Acute toxicity, guinea pigs; details: guinea pig, in vivo, male guinea pigs
# Text: The results of the tests are generalized in Table 1.
# T1 sequence (P31389 whole entry): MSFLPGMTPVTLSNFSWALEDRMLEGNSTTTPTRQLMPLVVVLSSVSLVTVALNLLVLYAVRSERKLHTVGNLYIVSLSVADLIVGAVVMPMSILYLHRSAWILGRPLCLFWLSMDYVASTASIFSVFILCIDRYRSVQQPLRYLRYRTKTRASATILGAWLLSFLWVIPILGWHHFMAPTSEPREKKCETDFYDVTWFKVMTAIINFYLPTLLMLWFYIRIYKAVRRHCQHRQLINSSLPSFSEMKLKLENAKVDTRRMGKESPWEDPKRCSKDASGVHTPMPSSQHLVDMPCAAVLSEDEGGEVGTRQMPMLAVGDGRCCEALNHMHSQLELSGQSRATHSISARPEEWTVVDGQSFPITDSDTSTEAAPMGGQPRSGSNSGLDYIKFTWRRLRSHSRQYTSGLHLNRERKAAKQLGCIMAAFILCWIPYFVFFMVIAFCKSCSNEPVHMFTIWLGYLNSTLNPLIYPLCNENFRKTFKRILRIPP
# Sequence of H2 -receptors (P25102 whole entry): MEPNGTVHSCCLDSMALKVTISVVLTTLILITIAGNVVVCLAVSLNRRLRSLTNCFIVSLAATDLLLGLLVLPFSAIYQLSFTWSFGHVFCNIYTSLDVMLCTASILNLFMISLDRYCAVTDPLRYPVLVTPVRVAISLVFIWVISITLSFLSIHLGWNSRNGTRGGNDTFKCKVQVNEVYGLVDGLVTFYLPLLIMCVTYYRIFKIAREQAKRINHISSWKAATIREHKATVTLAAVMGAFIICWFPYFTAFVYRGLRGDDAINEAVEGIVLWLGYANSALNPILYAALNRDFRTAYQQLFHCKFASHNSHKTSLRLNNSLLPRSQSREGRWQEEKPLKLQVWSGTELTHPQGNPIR
smiles,measurement,setting,value
"NCCc1nnc(N)s1 [Thidazine, 2-amino-5-(2-aminoethyl)-1,3,4-thiadiazole]","Behavior, food reflexes",male dogs; 200 mg per os daily 10 days,No changes
same,Bilirubin content,male dogs; 5th day,0.15 mg%
same,Glutamic-alanine transaminase content,male dogs; 5th day,30 units
same,Bilirubin content,male dogs; 10th day,0.15 mg%
same,Glutamic-alanine transaminase content,male dogs; 10th day,32 units
same,Bilirubin content,male dogs; at beginning,0.16 mg%
same,Glutamic-alanine transaminase content,male dogs; beginning,30 units
same,Histological Examination of Internal Organs,"male dogs; dog, in vivo",No microscopic changes
same,"Urinalysis: volume, specific weight, protein, microscopy of urinary sediment","male dogs; dog, in vivo",No significant changes
same,Emax,H2 -receptors,15%
same,maximum level of gastric secretion,"dog's stomach; per os, 100 mg per head",26 mEq per hour
same,gastric secretion after administration per os,"dog's stomach; thidazine 100 mg per head (parenterally and per os), histamine 10 and 20 mg, histalog 50 and 100 mg",can produce a maximum secretory effect when administered both parenterally and per os; also recorded: can produce a maximum secretion in a dog's stomach when administered both parenterally and perorally
same,action upon H2 -receptors compared with H1 -receptors,H1 - and H2 -receptors,the action of thidazine upon H2 -receptors is stronger than its action upon H1 -receptors
same,EC50,H1 -receptors,398 µM
same,reduction of arterial pressure,arterial pressure,12 mm of mercury
same,LD50,"[1]; ip, 280-350 g, i/p",360 mg/kg
same,LD50,"[1]; iv, 200-250 g, i/v",190 mg/kg
